Results: patent US7297790B2, “Anhydrous mirtazapine crystals and process for preparing the same” (Sumitomo Chemical Company, Limited, priority 1999, dated 2007)

Experiment: Hygroscopic degree of crystals stored at constant temperature and humidity (petri dish, weight gain)
Type: physicochemical
Conditions: 75% relative humidity, chamber temperature 25° C., after 500 hours; compared with Comparative Example 3
Protocol: Next, the mirtazapine crystals obtained in Example 7 and Comparative Example 3 were placed on a petri dish, and the petri dish was placed in a constant temperature and humidity of 75% relative humidity and a chamber temperature of 25° C., and the change in the hygroscopic degree of the crystals was evaluated. Incidentally, the hygroscopic degree is calculated by the following equation: [Hygroscopic Degree (% by weight)]=[(Weight (g) of Crystals After Treatment)−(Weight (g) of Crystals Before Treatment)]÷[Weight (g) of Crystals Before Treatment]×100

hygroscopic degree with the passage of time (FIG. 2), in words: very low
Structure (SMILES): CN1CCN2c3ncccc3Cc3ccccc3C2C1 (stereo not shown) [Example 7, anhydrous mirtazapine]
